This assay relates to S. aureus RN4850. Type of assay: cell-based.

In the case of “YSTCYFIM (SEQ ID NO: 123) (thiolactone cyclisation; listed as Staphylococcus aureus) [AIP-4, native S. aureus group IV autoinducing peptide, synthesized, reference compound]”, the “α-hemolysin expression after adding synthetic AIP-4 to AP4-24H11” value is reported as “fully restored expression of α-hemolysin”.

(Values after patent US9394371B2, “Antibody-mediated disruption of quorum sensing in bacteria” (The Scripps Research Institute, priority 2007, dated 2016).)
